Earlier results as cited in patent publication US20060084141A1, “Biosynthetic gene cluster for the maytansinoid antitumor agent ansamitocin” (priority 2001, published 2006).

Legend:
[1] = tested on: patients with different types of tumors; details: phase II trials
[2] = tested on: various murine leukemia cell lines; details: in vitro
[3] = tested on: human carcinoma and leukemia cell lines; details: in vitro

For COc1cc2cc(c1Cl)N(C)C(=O)C[C@H](OC(=O)[C@H](C)N(C)C(C)=O)[C@]1(C)O[C@H]1[C@H](C)[C@@H]1C[C@@](O)(NC(=O)O1)[C@H](OC)/C=C/C=C(\C)C2 [Maytansine], the response rates [1] is listed as “Insignificant response rates”, the tumor response (human cancer patients; phase I (early) trials) is listed as “A few partial responses” and the dose limiting toxicity (human cancer patients; phase I trials) is listed as “dose limiting gastrointestinal toxicity and neurotoxicity”. For the same molecule, the myelosuppression (human cancer patients; phase I trials) was “modest levels of mylosuppression”, the dose inhibiting growth [2] was 10^−3 to 10^−7 μg/ml and the dose inhibiting growth [3] was 10^−3 to 10^−7 μg/ml.
